Results as given in patent publication US9035052B2, “Compositions of azimilide dihydrochloride” (WARNER CHILCOTT COMPANY, LLC, priority 2006, dated 2015).

What was measured:
[1] = Apparent water solubility and dissolution of the solid state forms
[2] = Stability / water uptake of the solid state forms on exposure to relative humidity; assay type: physicochemical

CN1CCN(CCCCN2C(=O)CN(/N=C/c3ccc(-c4ccc(Cl)cc4)o3)C2=O)CC1.Cl.Cl [isopropanol solvate, (E)-1-[[[5-(4-chlorophenyl)-2-furanyl]methylene]amino]-3-[4-(4-methyl-1-piperazinyl)butyl]-2,4-imidazolidinedione dihydrochloride]
apparent water solubility ([1]; water, room temperature, dihydrochloride): 220 mg/mL
solid form conversion on humidity exposure ([2]; 85% relative humidity): converts to the anhydrate form within days to weeks
stability upon exposure to humidity ([2]; exposure to humidity): not stable

CN1CCN(CCCCN2C(=O)CN(/N=C/c3ccc(-c4ccc(Cl)cc4)o3)C2=O)CC1.Cl.Cl [hemi-hydrate, (E)-1-[[[5-(4-chlorophenyl)-2-furanyl]methylene]amino]-3-[4-(4-methyl-1-piperazinyl)butyl]-2,4-imidazolidinedione dihydrochloride]
dissolution rate compared with the anhydrate form ([1]; water): more rapid
solubility ([1]; water, apparent water solubility, room temperature): ~170 mg/mL
water content stability ([2]; room temperature, relative humidity range of 12% to 85% RH): stable

CN1CCN(CCCCN2C(=O)CN(/N=C/c3ccc(-c4ccc(Cl)cc4)o3)C2=O)CC1.Cl.Cl [anhydrate, (E)-1-[[[5-(4-chlorophenyl)-2-furanyl]methylene]amino]-3-[4-(4-methyl-1-piperazinyl)butyl]-2,4-imidazolidinedione dihydrochloride]
solubility as per the USP definition of solubility [1]: freely soluble
solubility ([1]; water): 160 mg/mL
hygroscopicity (water uptake) ([2]; room temperature, 85% relative humidity, up to 4 weeks): no evidence of water uptake
